Experimental data from patent publication EP0353416A2, “Use of ajoene and ajoene derivatives as cytostatics” (Gesellschaft für Biotechnologische Forschung mbH (GBF), priority 1988, dated 1990).

Tests used:
[1] = Inhibition of proliferation by incorporation of radioactive thymidine, BHK cell culture; assay type: cell-based, Hamster; conditions: hamster; BHK cells; beyond the limit of reversible inhibition; read-out: irreversible, d. h. toxische Wirkung
Description: (§1) Man ließ Ajoen auf eine Zellkultur der SV40-transformierten Baby-Hamster-Kidney-Linie (BHK; Fibroblast) einwirken. Die Proliferationshemmung wurde über den Einbau von radioaktivem Thymidin getestet.

[2] = system: SV40-transformierten Baby-Hamster-Kidney-Linie (BHK; Fibroblast); test: as above; assay type: cell-based; conditions: BHK cells
Description: as §1

Hela-Zellen = test: Inhibition of proliferation (thymidine incorporation), Hela cells; assay type: cell-based; conditions: Hela cells (Beispiel 3)
Experimental: (§2) Man ließ Ajoen auf eine Zellkultur der SV40-transformierten Baby-Hamster-Kidney-Linie (BHK; Fibroblast) einwirken. Die Proliferationshemmung wurde über den Einbau von radioaktivem Thymidin getestet. Sie ließ sich ab 1 µg Ajoen/ml ermitteln. Die Figur zeigt eine typische Hemmkurve. Der Figur läßt sich entnehmen, daß die Ki-Werte (50 %) im Bereich von etwa 1 bis 10 und insbesondere etwa 2 bis 5 µg Ajoen/ml lagen.
(§3) Beispiel 1 wurde ferner abweichend mit folgenden Linien nachgearbeitet: Hela-Zellen (Beispiel 3), LTK-Mäusezellen (Fibro blasten; Beispiel 4) und humane FS4-Vorhautzellen (Fibroblast). Auch bei diesen Beispielen wurde die cytostatische und cytotoxische Wirkung des Ajoens bestätigt.

[3] = system: LTK-Mäusezellen (Fibroblasten); test: Inhibition of proliferation (thymidine incorporation), LTK mouse cells; assay type: cell-based, Mäuse; conditions: LTK mouse cells (Beispiel 4)
Experimental: as §2, §3

[4] = system: humane FS4-Vorhautzellen (Fibroblast); test: Inhibition of proliferation (thymidine incorporation), human FS4 foreskin cells; assay type: cell-based
Experimental: as §2, §3

For `C=CCSSC=CC[S+]([O-])CC=C` (stereo not drawn) [Ajoen], the MCC [1] was over 20 µg/mL, the “Hemmung der Proliferation reversibel bis zu” value ([2]; upper concentration of reversible inhibition) was at most 20 µg Ajoen/ml and the minimal effective concentration ([2]; Mesocricetus auratus, lowest concentration at which inhibition was detectable, thymidine incorporation, read-out: Proliferationshemmung ließ sich ermitteln ab) was at least 1 µg/mL. For the same compound, the “cytostatische und cytotoxische Wirkung” value (Hela-Zellen) was “bestätigt”, the “cytostatische und cytotoxische Wirkung” value [3] was “bestätigt” and the “cytostatische und cytotoxische Wirkung” value [4] was “bestätigt”.
